# Test results as given in patent US5968903A, “Inhibition of H. pylori proliferation” (Biomeasure, Incorporated, priority 1998, dated 1999).
# Read-outs that look alike come from different tables or passages of the source. Positions of bridges follow the written chain, without caps; N, C: chain ends. Non-standard residues stand in square brackets, D forms with d. Residues, ends and D or L forms follow the SMILES beside them. *: point of attachment. X1 = O=C(CN1CCN(CCO)CC1)*
# How the values were obtained:
# [1] = target: human SSTR-3 (Homo sapiens, UniProt P32745); experiment: Somatostatin receptor binding assay, hSSTR-3
# [2] = target: human SSTR-2 (Homo sapiens, UniProt P30874); experiment: Somatostatin receptor binding assay, hSSTR-2
# [3] = target: human SSTR-1 (Homo sapiens, UniProt P30872); experiment: Somatostatin receptor binding assay, hSSTR-1
# [4] = tested on: H. pylori NCTC11638
# [5] = tested on: H. pylori ATCC43504; settings: ATCC43504, 48 h
# [6] = tested on: H. pylori ATCC43504; experiment: H. pylori proliferation in Brucella broth, strain ATCC43504; format: cell-based; settings: for ATCC43504 bacteria number: 10^-11 mol/L, 48 h
# [7] = tested on: H. pylori NCTC11916
# [8] = target: human SSTR-5 (Homo sapiens, UniProt P35346); experiment: Somatostatin receptor binding assay, hSSTR-5
# [9] = target: human SSTR-4 (Homo sapiens, UniProt P31391); experiment: Somatostatin receptor binding assay, hSSTR-4
# [10] = [125I-Tyr11]somatostatin-14, CHO-K1 membranes
# [11] = [125I-Tyr11]somatostatin-14, CHO-K1 membranes, read-out: Ki hSSTR-3
# [12] = [125I-Tyr11]somatostatin-14, CHO-K1 membranes, read-out: Ki hSSTR-2
# [13] = [125I-Tyr11]somatostatin-14, CHO-K1 membranes, read-out: Ki hSSTR-1
# Chain of human SSTR-3 (P32745 whole entry): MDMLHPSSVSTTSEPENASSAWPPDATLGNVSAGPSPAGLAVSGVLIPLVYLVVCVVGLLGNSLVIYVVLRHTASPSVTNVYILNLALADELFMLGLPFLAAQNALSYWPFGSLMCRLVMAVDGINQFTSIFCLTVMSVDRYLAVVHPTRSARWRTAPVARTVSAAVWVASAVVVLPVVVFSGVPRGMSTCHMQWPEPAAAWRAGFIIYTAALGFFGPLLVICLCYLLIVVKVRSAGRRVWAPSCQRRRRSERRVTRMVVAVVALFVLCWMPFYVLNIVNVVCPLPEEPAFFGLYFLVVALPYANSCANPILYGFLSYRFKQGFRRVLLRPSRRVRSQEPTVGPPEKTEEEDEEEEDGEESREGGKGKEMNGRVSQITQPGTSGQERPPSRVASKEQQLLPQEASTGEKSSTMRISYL
# Chain of human SSTR-2 (P30874 whole entry): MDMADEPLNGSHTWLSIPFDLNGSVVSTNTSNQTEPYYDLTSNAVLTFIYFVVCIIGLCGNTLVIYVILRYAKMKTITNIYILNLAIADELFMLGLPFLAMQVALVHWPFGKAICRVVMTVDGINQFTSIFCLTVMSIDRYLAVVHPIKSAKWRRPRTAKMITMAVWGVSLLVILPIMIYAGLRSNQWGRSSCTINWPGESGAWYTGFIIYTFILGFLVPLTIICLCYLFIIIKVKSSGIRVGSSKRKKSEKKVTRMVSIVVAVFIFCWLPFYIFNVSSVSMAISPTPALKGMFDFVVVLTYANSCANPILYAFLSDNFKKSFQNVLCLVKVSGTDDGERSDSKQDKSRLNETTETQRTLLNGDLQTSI
# Chain of human SSTR-5 (P35346 whole entry): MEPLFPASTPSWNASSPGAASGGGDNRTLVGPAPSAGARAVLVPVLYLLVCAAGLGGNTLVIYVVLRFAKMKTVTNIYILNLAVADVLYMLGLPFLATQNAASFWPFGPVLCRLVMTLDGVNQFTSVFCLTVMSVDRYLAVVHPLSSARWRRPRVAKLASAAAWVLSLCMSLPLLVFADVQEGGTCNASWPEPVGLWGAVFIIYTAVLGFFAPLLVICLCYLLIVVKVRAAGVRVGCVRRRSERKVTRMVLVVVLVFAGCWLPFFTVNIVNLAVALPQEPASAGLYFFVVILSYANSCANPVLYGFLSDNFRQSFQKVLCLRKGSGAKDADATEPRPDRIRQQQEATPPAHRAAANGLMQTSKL
# Chain of human SSTR-1 (P30872 whole entry): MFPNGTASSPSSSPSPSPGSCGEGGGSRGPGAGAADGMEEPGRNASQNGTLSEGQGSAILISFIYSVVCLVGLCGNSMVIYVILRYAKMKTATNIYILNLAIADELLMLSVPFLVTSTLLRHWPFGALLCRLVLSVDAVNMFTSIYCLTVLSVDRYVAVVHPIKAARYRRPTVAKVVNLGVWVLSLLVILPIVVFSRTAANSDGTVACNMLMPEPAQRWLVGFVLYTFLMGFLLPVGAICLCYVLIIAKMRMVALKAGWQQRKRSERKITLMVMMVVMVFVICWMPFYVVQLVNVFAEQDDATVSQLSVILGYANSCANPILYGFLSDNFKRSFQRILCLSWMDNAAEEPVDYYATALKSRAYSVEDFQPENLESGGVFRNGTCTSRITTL
# Chain of human SSTR-4 (P31391 whole entry): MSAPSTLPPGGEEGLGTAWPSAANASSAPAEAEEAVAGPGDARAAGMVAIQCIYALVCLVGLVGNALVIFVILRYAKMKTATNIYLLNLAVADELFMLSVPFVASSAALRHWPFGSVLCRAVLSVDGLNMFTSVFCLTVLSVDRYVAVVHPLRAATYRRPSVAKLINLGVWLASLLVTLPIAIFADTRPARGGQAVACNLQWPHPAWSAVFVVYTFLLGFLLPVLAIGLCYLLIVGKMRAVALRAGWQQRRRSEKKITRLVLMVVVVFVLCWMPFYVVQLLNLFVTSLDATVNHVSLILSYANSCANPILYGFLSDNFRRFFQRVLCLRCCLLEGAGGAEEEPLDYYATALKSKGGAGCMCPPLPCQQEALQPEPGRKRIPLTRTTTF
smiles,measurement,setting,value
"C[C@@H](O)[C@H](NC(=O)[C@@H]1CSSC[C@H](NC(=O)[C@H](N)Cc2ccc3ccccc3c2)C(=O)N[C@@H](Cc2ccc(O)cc2)C(=O)N[C@H](Cc2c[nH]c3ccccc23)C(=O)N[C@@H](CCCCN)C(=O)N[C@@H]([C@@H](C)O)C(=O)N1)C(N)=O [Example 1, H-D-β-Nal-Cys-Tyr-D-Trp-Lys-Thr-Cys-Thr-NH2]",Ki,[1],97.9 nM
same,Ki,[2],0.75 nM
same,Ki,[3],2410 nM
C[C@H](N)C(=O)NCC(=O)N[C@H]1CSSC[C@@H](C(=O)O)NC(=O)[C@H](CO)NC(=O)[C@H]([C@@H](C)O)NC(=O)[C@H](Cc2ccccc2)NC(=O)[C@H]([C@@H](C)O)NC(=O)[C@H](CCCCN)NC(=O)[C@H](Cc2c[nH]c3ccccc23)NC(=O)[C@H](Cc2ccccc2)NC(=O)[C@H](Cc2ccccc2)NC(=O)[C@H](CC(N)=O)NC(=O)[C@H](CCCCN)NC1=O [somatostatin],NCTC11638 bacteria number,[4],1.6±0.2 ×10^6 CFU/mL
same,inhibition of NCTC11638,"[4]; NCTC11638, 48 h",90%
same,inhibition of H. pylori proliferation by somatostatin,[5],88%
same,decrease of bacteria number / suppression of ATCC43504 proliferation,[6],49%
same,inhibition of ATCC43504 proliferation (in words),[6],inhibited proliferation of ATCC43504 in a dose-dependent manner
same,NCTC11916 bacteria number,[7],2.6±0.2 ×10^6 CFU/mL
same,inhibition of NCTC11916,"[7]; NCTC11916, 48 h",79%
"NCCCC[C@@H]1NC(=O)[C@@H](Cc2c[nH]c3ccccc23)NC(=O)[C@H](Cc2ccccc2)NC(=O)[C@H](Cc2ccccc2)NC(=O)[C@@H](N)CSSC[C@@H](C(N)=O)NC(=O)[C@H](Cc2ccccc2)NC(=O)[C@H](CO)NC1=O [Example 108, H-Cys-Phe-Phe-D-Trp-Lys-Ser-Phe-Cys-NH2] (H-CFF[dW]KSFC-NH2; disulfide 1-8 (inferred))",Ki,[8]; [10],0.85 nM
same,Ki,[1]; [11],35.6 nM
same,Ki,[2]; [12],19.3 nM
same,Ki,[3]; [13],27.9 nM
"C[C@@H](O)[C@H](NC(=O)[C@H](Cc1ccccc1)NC(=O)[C@@H](NC(=O)[C@H](CCCCN)NC(=O)[C@@H](Cc1c[nH]c2ccccc12)NC(=O)[C@H](Cc1ccccc1)NC(=O)[C@H](Cc1ccccc1)NC(=O)[C@H](N)Cc1ccccc1)[C@@H](C)O)C(N)=O [Example 114, H-D-Phe-Phe-Phe-D-Trp-Lys-Thr-Phe-Thr-NH2] (H-[dF]FF[dW]KTFT-NH2)",affinity for type 5 (in words),[8],high affinity
same,affinity for type 3 (in words),[1],high affinity
same,ATCC43504 bacteria number,[6],9.8 ± 2.0 ×10^5 CFU/mL
"C[C@@H](O)[C@@H]1NC(=O)[C@H](CCCCN)NC(=O)[C@@H](Cc2c[nH]c3ccccc23)NC(=O)[C@H](Cc2ccccc2)NC(=O)[C@H](Cc2ccccc2)NC(=O)[C@@H](N)CSSC[C@@H](C(N)=O)NC(=O)[C@H](Cc2ccccc2)NC1=O [Example 107, H-Cys-Phe-Phe-D-Trp-Lys-Thr-Phe-Cys-NH2] (H-CFF[dW]KTFC-NH2; disulfide 1-8 (inferred))",affinity for type 5 (in words),[8],high affinity
same,affinity for type 3 (in words),[1],some affinity
same,ATCC43504 bacteria number,[6],6.5 ± 0.7 ×10^5 CFU/mL
same,affinity for type 1 (in words),[3],some affinity
C[C@@H](O)[C@H](NC(=O)[C@H](Cc1ccccc1)NC(=O)[C@@H](NC(=O)[C@H](CCCCN)NC(=O)[C@@H](Cc1c[nH]c2ccccc12)NC(=O)[C@H](Cc1ccccc1)NC(=O)[C@H](Cc1ccccc1)NC(=O)[C@@H](Cc1ccccc1)NC(=O)CN1CCN(CCO)CC1)[C@@H](C)O)C(N)=O [Example 118] (X1-[dF]FF[dW]KTFT-NH2),Ki,[8],1.01 nM
same,Ki,[1]; read-out: Ki hSSTR-3,10.9 nM
same,Ki,[2]; read-out: Ki hSSTR-2,3.23 nM
same,Ki,[9],753 nM
same,Ki,[3]; read-out: Ki hSSTR-1,47.7 nM
"CC(C)[C@@H]1NC(=O)[C@H](CCCCN)NC(=O)[C@@H](Cc2c[nH]c3ccccc23)NC(=O)[C@H](Cc2ccc(O)cc2)NC(=O)[C@H](C)N(C)C(=O)[C@H](Cc2ccccc2)NC1=O [Example 76, cyclo(N-Me-Ala-Tyr-D-Trp-Lys-Val-Phe)]",affinity for type 2 (in words),[2],high affinity
same,ATCC43504 bacteria number,[6],2.7 ± 1.3 ×10^5 CFU/mL
"C[C@@H](O)[C@@H]1NC(=O)[C@H](CCCCN)NC(=O)[C@@H](Cc2c[nH]c3ccccc23)NC(=O)[C@H](Cc2ccc(O)cc2)NC(=O)[C@H](Cc2ccccc2)NC(=O)[C@@H](N)CSSC[C@@H](C(N)=O)NC(=O)[C@H](Cc2ccccc2)NC1=O [Example 109, H-Cys-Phe-Tyr-D-Trp-Lys-Thr-Phe-Cys-NH2] (H-CFY[dW]KTFC-NH2; disulfide 1-8 (inferred))",Ki,[8]; [10],0.34 nM
same,affinity for type 3 (in words),[1],high affinity
same,Ki,[1]; [11],9.7 nM
same,affinity for type 2 (in words),[2],high affinity
same,Ki,[2]; [12],6.19 nM
same,affinity for type 4 (in words),[9],high affinity
same,ATCC43504 bacteria number,[6],1.4 ± 0.5 ×10^5 CFU/mL
same,Ki,[3]; [13],86.9 nM
